Source: patent US20230312529A1, “PYRIMIDINE SMALL-MOLECULE COMPOUND AND APPLICATION THEREOF” (WENZHOU MEDICAL UNIVERSITY, priority 2021, published 2023)
Read-outs that look alike come from different tables or passages of the source.

Columns and labels:
osteosarcoma cells MNNG = test: Adhesion test of osteosarcoma cells on fibronectin; assay type: cell-based; conditions: 0.1, 0.2 and 0.4 uM, 48 hours, compared with positive drugs
Method: (§1) Each well was dried, and added with 100 μL of 33% glacial acetic acid and the crystal violet was dissolved by shaking for 10 minutes. The absorbance was measured by a microplate reader at […], and the adhesion rate (%)=(OD value of tumor cells in the drug-added treated group−Hu FN OD value)/(OD value of untreated tumor cells−Hu FN OD value)×100%.

osteosarcoma cells MG63 = test: Adhesion test of osteosarcoma cells on fibronectin; assay type: cell-based; conditions: 0.1, 0.2 and 0.4 uM, 48 hours, compared with positive drugs
Method: as §1

[1] = system: human normal retinal cells ARPE-19; test: MTT assay on human retinal cells; assay type: cell-based
JAK1 = JAK1 (Homo sapiens (Human), UniProt P23458); test: Caliper Mobility Shift kinase inhibition test; assay type: biochemical; conditions: for inhibition at 0.1 µM: 100 nM
Method: (§2) The method adopted in the test was Caliper Mobility Shift Assay, which was a detection platform based on the mobility detection technology of microfluidic chip technology. Test steps: 1.25× kinase reaction buffer (62.5 mmol/L HEPES, pH 7.5; 0.001875% Brij-35; 12.5 mmol/L MgCl2; 2.5 mM DTT) and kinase reaction stop solution (100 mmol/L HEPES, pH 7.5; 0.015% Brij-35; 0.2% Coating Reagent #3) were configured. […] Collected data was tested on Caliper to yield that inhibition ratio to kinase activity=(max−conversion)/(max−min)×100. “max” was DMSO control without adding compound, and “min” was low control. When IC50 was determined, each sample was provided with 10 dilutions, each with 2 multiple holes, and repeated for 3 times.
(§3) According to the above-mentioned method for measuring kinase inhibitory activity, the inhibitory activity of the active compounds on other multiple kinases was measured to characterize the kinase selectivity of active inhibitors.

FGFR2 = FGFR2 (Homo sapiens (Human), UniProt P21802); test: Caliper Mobility Shift kinase inhibition test; assay type: biochemical; conditions: for inhibition at 0.1 µM: 100 nM
Method: as §2, §3

PDGFRβ = PDGFRβ (Homo sapiens (Human), UniProt P09619); test: Caliper Mobility Shift kinase inhibition test; assay type: biochemical; conditions: for inhibition at 0.1 µM: 100 nM
Method: as §2, §3

[2] = system: human cerebrovascular pericytes (HBVP); test: MTT assay on human neovascular cells; assay type: cell-based
FLT1 = FLT1 (Homo sapiens (Human), UniProt P17948); test: Kinase selectivity test; assay type: biochemical; conditions: 100 nM
Method: as §2, §3

EGFR/T790M/L858R = EGFR/T790M/L858R (Homo sapiens (Human), UniProt P00533, L858R/T790M); test: Kinase selectivity test; assay type: biochemical; conditions: 100 nM
Method: as §2, §3

EGFR L858R/T790M/C797S = EGFR L858R/T790M/C797S (Homo sapiens (Human), UniProt P00533, C797S/L858R/T790M); test: Kinase selectivity test; assay type: biochemical; conditions: 100 nM
Method: as §2, §3

[3] = system: human brain microvascular endothelial cells (HCMEC/D3); test: MTT assay on human neovascular cells; assay type: cell-based
[4] = system: PDGFR signaling pathway related proteins in MNNG cells; test: Western Blot of PDGFR signaling pathway protein phosphorylation; assay type: cell-based; conditions: 0.1, 0.2 and 0.4 uM, 48 hours
Method: (§4) After pretreating the osteosarcoma cell line with the compound for 48 hours, the culture medium was sucked off, washed with PBS for 3 times, and the total protein was extracted after lysis. A phosphorylation level of the PDGFR signaling pathway related proteins was detected by Western Blot.

[5] = system: PDGFR signaling pathway related proteins in MG63 cells; test: as above; assay type: cell-based; conditions: 0.1, 0.2 and 0.4 uM, 48 hours
Method: as §4

[6] = compared with multiple positive drugs

Chain of FGFR2 (P21802 22-821, species assumed): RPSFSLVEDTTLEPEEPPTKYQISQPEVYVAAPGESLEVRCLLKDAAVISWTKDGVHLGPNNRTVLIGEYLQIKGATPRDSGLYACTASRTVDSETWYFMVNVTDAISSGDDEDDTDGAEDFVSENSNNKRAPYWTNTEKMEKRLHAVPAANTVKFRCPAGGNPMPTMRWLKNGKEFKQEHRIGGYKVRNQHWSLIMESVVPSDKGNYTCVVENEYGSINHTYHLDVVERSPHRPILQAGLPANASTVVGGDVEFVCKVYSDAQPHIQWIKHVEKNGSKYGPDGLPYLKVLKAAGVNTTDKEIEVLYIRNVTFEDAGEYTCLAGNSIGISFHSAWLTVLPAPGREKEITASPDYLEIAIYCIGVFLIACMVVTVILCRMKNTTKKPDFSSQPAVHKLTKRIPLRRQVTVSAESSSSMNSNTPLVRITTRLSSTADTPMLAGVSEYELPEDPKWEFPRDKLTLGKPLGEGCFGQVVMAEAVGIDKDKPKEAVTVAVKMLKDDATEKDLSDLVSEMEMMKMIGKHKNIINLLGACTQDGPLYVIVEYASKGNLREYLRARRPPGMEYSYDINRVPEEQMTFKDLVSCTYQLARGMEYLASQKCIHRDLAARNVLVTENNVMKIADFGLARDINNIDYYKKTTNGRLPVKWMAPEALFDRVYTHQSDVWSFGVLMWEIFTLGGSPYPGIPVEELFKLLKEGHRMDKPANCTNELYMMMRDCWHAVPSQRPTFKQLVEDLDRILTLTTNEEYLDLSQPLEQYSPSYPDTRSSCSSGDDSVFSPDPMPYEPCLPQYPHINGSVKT
Chain of EGFR L858R/T790M/C797S (P00533 25-1210 T790M/C797S/L858R): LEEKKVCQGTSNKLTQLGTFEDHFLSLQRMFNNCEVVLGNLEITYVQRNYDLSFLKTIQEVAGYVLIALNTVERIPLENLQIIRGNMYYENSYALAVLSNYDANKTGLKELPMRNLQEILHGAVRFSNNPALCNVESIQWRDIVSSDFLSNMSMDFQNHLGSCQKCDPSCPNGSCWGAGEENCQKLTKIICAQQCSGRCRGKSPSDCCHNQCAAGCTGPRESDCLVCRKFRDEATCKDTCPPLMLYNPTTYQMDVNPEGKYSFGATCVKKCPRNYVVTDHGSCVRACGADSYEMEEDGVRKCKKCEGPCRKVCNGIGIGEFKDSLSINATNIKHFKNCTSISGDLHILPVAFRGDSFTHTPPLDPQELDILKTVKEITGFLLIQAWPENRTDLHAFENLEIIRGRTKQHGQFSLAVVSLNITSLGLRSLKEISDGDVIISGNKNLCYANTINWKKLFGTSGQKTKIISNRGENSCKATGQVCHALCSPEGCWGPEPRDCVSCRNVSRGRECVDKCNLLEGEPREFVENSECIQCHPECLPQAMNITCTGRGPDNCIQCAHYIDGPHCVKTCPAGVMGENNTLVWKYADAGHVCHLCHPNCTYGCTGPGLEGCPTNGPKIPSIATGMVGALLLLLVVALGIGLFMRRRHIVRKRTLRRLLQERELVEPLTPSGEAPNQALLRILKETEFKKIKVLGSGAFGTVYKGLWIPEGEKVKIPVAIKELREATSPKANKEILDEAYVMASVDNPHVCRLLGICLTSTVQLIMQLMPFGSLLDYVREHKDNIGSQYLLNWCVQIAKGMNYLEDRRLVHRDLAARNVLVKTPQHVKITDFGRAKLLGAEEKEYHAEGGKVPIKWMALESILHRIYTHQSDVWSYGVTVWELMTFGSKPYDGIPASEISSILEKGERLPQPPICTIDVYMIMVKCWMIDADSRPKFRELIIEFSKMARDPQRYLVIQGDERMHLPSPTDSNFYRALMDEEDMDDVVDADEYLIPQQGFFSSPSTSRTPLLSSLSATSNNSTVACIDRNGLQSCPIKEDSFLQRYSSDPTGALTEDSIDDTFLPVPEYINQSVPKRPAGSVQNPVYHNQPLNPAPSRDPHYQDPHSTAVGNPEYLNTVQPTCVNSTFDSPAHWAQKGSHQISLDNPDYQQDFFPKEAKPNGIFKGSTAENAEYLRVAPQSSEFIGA
Chain of EGFR/T790M/L858R (P00533 25-1210 T790M/L858R): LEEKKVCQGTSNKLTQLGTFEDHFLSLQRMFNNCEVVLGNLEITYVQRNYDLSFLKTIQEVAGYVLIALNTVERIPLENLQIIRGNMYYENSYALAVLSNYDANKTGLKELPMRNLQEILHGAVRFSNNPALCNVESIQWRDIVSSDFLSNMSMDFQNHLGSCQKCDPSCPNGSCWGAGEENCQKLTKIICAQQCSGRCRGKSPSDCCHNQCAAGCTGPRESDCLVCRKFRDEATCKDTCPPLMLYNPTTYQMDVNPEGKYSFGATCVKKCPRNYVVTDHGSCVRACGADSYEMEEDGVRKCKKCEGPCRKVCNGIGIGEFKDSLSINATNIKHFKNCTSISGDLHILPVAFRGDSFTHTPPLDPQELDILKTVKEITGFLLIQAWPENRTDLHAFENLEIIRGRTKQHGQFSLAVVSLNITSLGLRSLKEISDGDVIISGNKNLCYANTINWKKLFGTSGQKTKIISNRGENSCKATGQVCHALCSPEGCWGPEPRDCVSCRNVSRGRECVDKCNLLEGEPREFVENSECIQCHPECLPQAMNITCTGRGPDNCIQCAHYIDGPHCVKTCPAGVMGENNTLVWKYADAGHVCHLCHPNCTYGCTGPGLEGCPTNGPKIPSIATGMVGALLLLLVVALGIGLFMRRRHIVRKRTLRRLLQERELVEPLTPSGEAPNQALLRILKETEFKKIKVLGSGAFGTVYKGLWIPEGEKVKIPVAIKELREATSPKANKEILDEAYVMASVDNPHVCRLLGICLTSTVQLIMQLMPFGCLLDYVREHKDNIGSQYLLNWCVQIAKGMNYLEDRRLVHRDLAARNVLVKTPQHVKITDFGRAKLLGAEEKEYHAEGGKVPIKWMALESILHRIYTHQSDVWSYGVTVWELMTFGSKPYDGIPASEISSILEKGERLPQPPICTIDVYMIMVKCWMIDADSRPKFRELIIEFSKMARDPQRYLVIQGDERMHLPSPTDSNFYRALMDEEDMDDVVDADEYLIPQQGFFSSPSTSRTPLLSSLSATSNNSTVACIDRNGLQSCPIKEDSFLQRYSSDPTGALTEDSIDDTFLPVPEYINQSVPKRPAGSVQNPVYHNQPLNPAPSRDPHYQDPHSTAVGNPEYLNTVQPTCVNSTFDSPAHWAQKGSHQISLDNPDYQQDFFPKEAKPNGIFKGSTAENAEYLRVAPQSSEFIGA
Chain of FLT1 (P17948 27-1338, species assumed): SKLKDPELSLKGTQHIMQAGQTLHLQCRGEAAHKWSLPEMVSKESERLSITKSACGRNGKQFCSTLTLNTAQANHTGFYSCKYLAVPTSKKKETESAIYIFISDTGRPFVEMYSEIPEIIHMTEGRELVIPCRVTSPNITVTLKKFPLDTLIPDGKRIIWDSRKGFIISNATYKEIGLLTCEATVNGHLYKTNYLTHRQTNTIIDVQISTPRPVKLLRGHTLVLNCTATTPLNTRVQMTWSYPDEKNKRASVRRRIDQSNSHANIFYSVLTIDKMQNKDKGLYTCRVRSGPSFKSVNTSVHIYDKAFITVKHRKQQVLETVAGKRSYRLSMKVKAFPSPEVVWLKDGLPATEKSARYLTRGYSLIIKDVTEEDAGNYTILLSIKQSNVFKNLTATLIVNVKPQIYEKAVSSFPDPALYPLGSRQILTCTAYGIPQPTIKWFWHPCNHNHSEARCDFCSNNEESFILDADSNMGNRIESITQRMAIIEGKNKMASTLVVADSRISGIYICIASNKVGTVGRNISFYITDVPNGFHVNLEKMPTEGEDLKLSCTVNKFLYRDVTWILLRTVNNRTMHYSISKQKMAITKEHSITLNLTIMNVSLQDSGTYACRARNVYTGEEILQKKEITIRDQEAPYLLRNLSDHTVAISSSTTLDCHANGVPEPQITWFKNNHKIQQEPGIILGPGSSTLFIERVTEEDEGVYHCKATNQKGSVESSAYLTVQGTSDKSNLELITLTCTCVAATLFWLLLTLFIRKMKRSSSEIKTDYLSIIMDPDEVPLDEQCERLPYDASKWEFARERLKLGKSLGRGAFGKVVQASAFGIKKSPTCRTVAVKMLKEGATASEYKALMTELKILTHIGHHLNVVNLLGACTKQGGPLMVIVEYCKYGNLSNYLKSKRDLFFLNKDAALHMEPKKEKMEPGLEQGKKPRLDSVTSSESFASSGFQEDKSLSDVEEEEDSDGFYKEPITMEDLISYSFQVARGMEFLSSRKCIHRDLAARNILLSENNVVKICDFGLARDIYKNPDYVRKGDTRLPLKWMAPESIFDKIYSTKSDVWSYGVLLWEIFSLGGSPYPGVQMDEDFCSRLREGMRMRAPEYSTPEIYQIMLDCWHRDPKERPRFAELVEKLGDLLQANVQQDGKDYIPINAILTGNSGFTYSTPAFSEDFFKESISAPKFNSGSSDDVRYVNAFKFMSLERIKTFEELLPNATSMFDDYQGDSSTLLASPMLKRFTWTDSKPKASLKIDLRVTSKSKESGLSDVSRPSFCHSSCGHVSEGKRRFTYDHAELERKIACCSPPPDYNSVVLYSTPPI

inhibitory activity on ARPE-19 (in words) ([1]; at low concentration): almost no inhibitory activity | IC50 (JAK1): 7.7 nM | inhibition at 0.1 µM (JAK1; average, read-out: Average % inhibition JAK1): 90.5% | inhibition at 0.1 µM (JAK1; replicate 1, read-out: % inhibition 1 JAK1): 91.7% | inhibition at 0.1 µM (JAK1; replicate 2, read-out: % inhibition 2 JAK1): 89.3% | IC50 (FGFR2): 27 nM | inhibition at 0.1 µM (FGFR2; average, read-out: Average % inhibition FGFR2): 83% | inhibition at 0.1 µM (FGFR2; replicate 1, read-out: % inhibition 1 FGFR2): 83.8% | inhibition at 0.1 µM (FGFR2; replicate 2, read-out: % inhibition 2 FGFR2): 82.1% | inhibitory activity on PDGFRβ (in words) (PDGFRβ): significant inhibitory activities | inhibition at 0.1 µM (PDGFRβ; average, read-out: Average % inhibition PDGFR β): > 100% | inhibition at 0.1 µM (PDGFRβ; replicate 1, read-out: % inhibition 1 PDGFR β): 101% | inhibition at 0.1 µM (PDGFRβ; replicate 2, read-out: % inhibition 2 PDGFR β): 103% | inhibition at 0.1 µM (PDGFRβ; read-out: inhibitory rate on PDGFR-β): 99.8% | IC50 (PDGFRβ; read-out: IC50 PDGFR-β): 1.7 nM | inhibition at 0.1 µM (FLT1; average, read-out: Average % inhibition FLT1): 79.7% | inhibition at 0.1 µM (FLT1; replicate 1, read-out: % inhibition 1 FLT1): 78.7% | inhibition at 0.1 µM (FLT1; replicate 2, read-out: % inhibition 2 FLT1): 80.7% | inhibition at 0.1 µM (EGFR/T790M/L858R; average, read-out: Average % inhibition EGFR/T790M/L858R): 77.2% | inhibition at 0.1 µM (EGFR/T790M/L858R; replicate 1, read-out: % inhibition 1 EGFR/T790M/L858R): 76.6% | inhibition at 0.1 µM (EGFR/T790M/L858R; replicate 2, read-out: % inhibition 2 EGFR/T790M/L858R): 77.9% | inhibition at 0.1 µM (EGFR L858R/T790M/C797S; average, read-out: Average % inhibition EGFR L858R/T790M/C797S): 74.5% | inhibition at 0.1 µM (EGFR L858R/T790M/C797S; replicate 1, read-out: % inhibition 1 EGFR L858R/T790M/C797S): 73.4% | inhibition at 0.1 µM (EGFR L858R/T790M/C797S; replicate 2, read-out: % inhibition 2 EGFR L858R/T790M/C797S): 75.7%
SMILES: CCN1CCN(c2ccc(Nc3ncc(C)c(Nc4ccc5cn[nH]c5c4)n3)cc2OC)CC1 [Compound 6i, N^2-(4-(4-ethylpiperazine-1-yl)-3-methoxyphenyl)-N^4-(1H-indazol-6-yl)-5-methylpyrimidine-2,4-diamine]
inhibitory activity on adhesion (osteosarcoma cells MNNG): strong dose-dependent inhibitory activity | inhibitory activity on adhesion (osteosarcoma cells MG63): strong dose-dependent inhibitory activity | IC50 ([1]; Homo sapiens, ARPE-19, MTT, read-out: Inhibitory activity (IC50) ARPE-19): 17500 ± 370 nM | IC50 ([2]; Homo sapiens, MTT, read-out: Inhibitory activity (IC50) HBVP): 550 ± 98 nM | inhibitory activity on HBVP (in words) [2, 6]: strong inhibitory activity | IC50 ([3]; Homo sapiens, hCMEC/D3, MTT, read-out: Inhibitory activity (IC50) HCMEC-D3): 230 ± 2 nM | inhibitory activity on HCMEC/D3 (in words) [3, 6]: strong inhibitory activity | inhibition of phosphorylation of signaling pathway proteins [4]: strong dose-dependent inhibition | inhibition of phosphorylation of signaling pathway proteins [5]: strong dose-dependent inhibition
